≈ marks a conversion by molar mass, not a printed value. Where “and” joins values, the source holds several entries; their conditions need not be identical. Identical values can stand only once.
Legend:
[1] = system: individual Aspergillus spp. (Table 13, species not given); assay: MIC testing (CLSI M38-A2), Table 13; type: cell-based; settings: Aspergillus sp. of Table 13, caspofungin read as MEC
Candida albicans [2] = assay: MFC determination; type: cell-based
[3] = system: all Aspergillus strains tested; assay: MIC testing (CLSI M38-A2), summary; type: cell-based; settings: caspofungin read as MEC
[4] = system: Blastomyces dermatitidis, Coccidioides immitis, and Histoplasma capsulatum strains; type: cell-based; settings: dimorphic fungal isolates; in µg/mL
Fusarium strains = assay: MIC testing (CLSI M38-A2), Table 17; type: cell-based, Fusarium spp.; settings: Fusarium strains (Table 17)
[5] = system: individual Aspergillus spp. (Table 12, species not named); assay: MFC determination, Table 12; type: cell-based; settings: Aspergillus sp. of Table 12
all Candida strains [6] = assay: MFC determination, summary; type: cell-based
[7] = system: Fusarium strains (Table 18); assay: MIC testing (CLSI M38-A2), Table 18; type: cell-based, Fusarium spp.
Penicillium strains = assay: MIC testing (CLSI M38-A2); type: cell-based, Penicillium spp.
[8] = system: individual Aspergillus spp. (Table 15, species not named); assay: MIC testing (CLSI M38-A2), Table 15; type: cell-based; settings: Aspergillus sp. of Table 15, caspofungin read as MEC
C. tropicalis [9] = assay: MFC determination; type: cell-based
C. glabrata strains [10] = assay: MIC testing (CLSI M27-A3); type: cell-based; design: MIC: unit not given beside the values
A. fumigatus AF91 = assay: In vitro activity (MIC) against the infecting strain, Example 17; type: cell-based, Aspergillus fumigatus; settings: Aspergillus fumigatus, read-out: MIC
Procedure: Minimum Inhibitory Concentration: MIC testing was performed according to the Clinical and Laboratory Standards Institute (CLSI) M27-A3 and M38-A2 standards for the susceptibility testing of yeasts and filamentous fungi, respectively (Cryptococcus isolates were incubated for 72 h). For yeast strains, the incubation temperature and time were 35° C. and 24-48 h, respectively, and the inoculum size was 0.5-2.5×10^3 CFU/ml. For filamentous strains, the inoculum size was 0.4-5×10^4 CFU/ml, and the incubation time was strain and drug specific. RPMI 1640 was the test medium throughout, with the exception of the use of YNB for Cryptococcus. Inhibition endpoints for compound 1A were recorded at 50% and 100% after both 24 h and 48 h incubation; caspofungin results against Aspergillus strains were read as minimum effective concentrations (MEC), the lowest concentration that leads to small, rounded, compact growth as compared to the confluent growth of the control.

C. albicans SC5314 = assay: In vitro activity (MIC) against the infecting strain, Example 18; type: cell-based, Candida albicans; settings: Candida albicans, read-out: MIC
[11] = system: individual Aspergillus spp. (Table 12, species not named); assay: MIC testing (CLSI M38-A2), Table 12; type: cell-based; settings: Aspergillus sp. of Table 12, caspofungin read as MEC
all Candida strains [12] = assay: MIC testing (CLSI M27-A3), summary; type: cell-based
[13] = system: individual Aspergillus spp. (Table 14, species not named); assay: MFC determination, Table 14; type: cell-based; settings: Aspergillus sp. of Table 14
Candida albicans [14] = assay: MIC testing (CLSI M27-A3); type: cell-based; design: MIC: unit not given beside the values; settings: for MIC Range: in µg/mL
C. parapsilosis = assay: MIC testing (CLSI M27-A3); type: cell-based; design: MIC: unit not given beside the values
C. glabrata strains [15] = assay: MFC determination; type: cell-based; design: MFC: unit not given beside the values
C. krusei strains = assay: MIC testing (CLSI M27-A3); type: cell-based
C. tropicalis [16] = assay: MIC testing (CLSI M27-A3); type: cell-based
[17] = system: individual Aspergillus spp. (Table 14, species not named); assay: MIC testing (CLSI M38-A2), Table 14; type: cell-based; settings: Aspergillus sp. of Table 14, caspofungin read as MEC
[18] = system: all Aspergillus strains tested; assay: MFC determination, summary; type: cell-based
Cr. neoformans strains = assay: MIC testing (CLSI M27-A3, YNB, 72 h); type: cell-based, Cryptococcus neoformans
[19] = individual C. albicans strain with elevated MICs to non-polyene comparators (Table 22)
[20] = C. tropicalis strains, in µg/mL
[21] = individual C. glabrata strain with elevated MICs to non-polyene comparators (Table 22)

## C[C@@H]1[C@H](O)[C@@H](C)/C=C/C=C/C=C/C=C/C=C/C=C/C=C/[C@H](O[C@@H]2O[C@H](C)[C@@H](O)[C@H](N)[C@@H]2O)C[C@@H]2O[C@](O)(C[C@@H](O)[C@H](O)CC[C@@H](O)C[C@@H](O)C[C@@H](O)CC(=O)O[C@H]1C)C[C@H](O)[C@H]2C [Compound 1A]
[1]; in µg/mL
  MIC Range: 1-2
[1]; inhibits 50% of strains
  MIC50: 1 µg/mL (≈ 1.12 µM)
[1]; inhibits 90% of strains
  MIC90: 2 µg/mL (≈ 2.24 µM)
Candida albicans [2]; Fluconazole-susceptible C. albicans n = 13, in µg/mL
  MFC Range: 0.125-1
Candida albicans [2]; Fluconazole-susceptible C. albicans n = 13, kills 50% of strains
  MFC50: 0.5 µg/mL (≈ 0.559 µM)
Candida albicans [2]; Fluconazole-susceptible C. albicans n = 13, kills 90% of strains
  MFC90: 1 µg/mL (≈ 1.12 µM)
Candida albicans [2]; [19]
  MFC: 1 (5×) and >4 and 2
[3]; in µg/mL
  MIC Range: 0.5-4
[3]; inhibits 50% of strains
  MIC50: 2 µg/mL (≈ 2.24 µM)
[3]; inhibits 90% of strains
  MIC90: 2 µg/mL (≈ 2.24 µM)
[4]
  MIC Range: <0.03-0.25
Fusarium strains; in µg/mL
  MIC Range: 1-4
Fusarium strains; inhibits 50% of strains
  MIC50: 2 µg/mL (≈ 2.24 µM)
Fusarium strains; inhibits 90% of strains
  MIC90: 4 µg/mL (≈ 4.47 µM)
[5]; kills 50% of strains
  MFC50: 4 µg/mL (≈ 4.47 µM)
[5]; kills 90% of strains
  MFC90: > 4 µg/mL
All Candida strains [6]; in µg/mL
  MFC Range: 0.125-16
All Candida strains [6]; kills 50% of strains
  MFC50: 1 µg/mL (≈ 1.12 µM)
All Candida strains [6]; kills 90% of strains
  MFC90: 2 µg/mL (≈ 2.24 µM)
[7]; in µg/mL
  MIC Range: 1-4
[7]; inhibits 50% of strains
  MIC50: 2 µg/mL (≈ 2.24 µM)
[7]; inhibits 90% of strains
  MIC90: 4 µg/mL (≈ 4.47 µM)
Penicillium strains; Penicillium strains, in µg/mL
  MIC Range: 0.5-2
Penicillium strains; Penicillium, inhibits 50% of strains
  MIC50: 2 µg/mL (≈ 2.24 µM)
Penicillium strains; Penicillium, inhibits 90% of strains
  MIC90: 2 µg/mL (≈ 2.24 µM)
[8]; in µg/mL
  MIC Range: 0.5-4
[8]; inhibits 50% of strains
  MIC50: 2 µg/mL (≈ 2.24 µM)
[8]; inhibits 90% of strains
  MIC90: 4 µg/mL (≈ 4.47 µM)
C. tropicalis [9]; [20]
  MFC Range: 0.5-16
C. tropicalis [9]; C. tropicalis, kills 50% of strains
  MFC50: 1 µg/mL (≈ 1.12 µM)
C. tropicalis [9]; C. tropicalis, kills 90% of strains
  MFC90: 8 µg/mL (≈ 8.95 µM)
C. glabrata strains [10]; C. glabrata strains, in µg/mL
  MIC Range: 0.25-2
C. glabrata strains [10]; C. glabrata, inhibits 50% of strains
  MIC50: 1 µg/mL (≈ 1.12 µM)
C. glabrata strains [10]; C. glabrata, inhibits 90% of strains
  MIC90: 2 µg/mL (≈ 2.24 µM)
C. glabrata strains [10]; [21]
  MIC: 1 (5×) and 2
A. fumigatus AF91
  MIC: 2 µg/mL (≈ 2.24 µM)
C. albicans SC5314
  MIC: 0.5 µg/mL (≈ 0.559 µM)
[11]; in µg/mL
  MIC Range: 1-4
[11]; inhibits 50% of strains
  MIC50: 2 µg/mL (≈ 2.24 µM)
[11]; inhibits 90% of strains
  MIC90: 2 µg/mL (≈ 2.24 µM)
All Candida strains [12]; in µg/mL
  MIC Range: 0.125-8
All Candida strains [12]; inhibits 50% of strains
  MIC50: 1 µg/mL (≈ 1.12 µM)
All Candida strains [12]; inhibits 90% of strains
  MIC90: 2 µg/mL (≈ 2.24 µM)
[13]; kills 50% of strains
  MFC50: 2 µg/mL (≈ 2.24 µM)
[13]; kills 90% of strains
  MFC90: 4 µg/mL (≈ 4.47 µM)
Candida albicans [14]; Fluconazole-resistant C. albicans n = 7
  MIC Range: 1-2
Candida albicans [14]; Fluconazole-susceptible C. albicans n = 13
  MIC Range: 0.125-1
Candida albicans [14]; Fluconazole-susceptible C. albicans n = 13, inhibits 50% of strains
  MIC50: 0.5 µg/mL (≈ 0.559 µM)
Candida albicans [14]; Fluconazole-susceptible C. albicans n = 13, inhibits 90% of strains
  MIC90: 1 µg/mL (≈ 1.12 µM)
Candida albicans [14]; [19]
  MIC: 1 (6×) and 2
C. parapsilosis; C. parapsilosis strains, in µg/mL
  MIC Range: 0.25-2
C. parapsilosis; C. parapsilosis, inhibits 50% of strains
  MIC50: 0.25 µg/mL (≈ 0.28 µM)
C. parapsilosis; C. parapsilosis, inhibits 90% of strains
  MIC90: 2 µg/mL (≈ 2.24 µM)
C. parapsilosis; individual C. parapsilosis strain with elevated MICs to non-polyene comparators (Table 22)
  MIC: 0.5 (2×) and 1
C. glabrata strains [15]; C. glabrata strains, in µg/mL
  MFC Range: 0.5-2
C. glabrata strains [15]; C. glabrata, kills 50% of strains
  MFC50: 1 µg/mL (≈ 1.12 µM)
C. glabrata strains [15]; C. glabrata, kills 90% of strains
  MFC90: 2 µg/mL (≈ 2.24 µM)
C. glabrata strains [15]; [21]
  MFC: 1 (5×) and 2
C. krusei strains; C. krusei strains, in µg/mL
  MIC Range: 0.5-2
C. krusei strains; C. krusei, inhibits 50% of strains
  MIC50: 1 µg/mL (≈ 1.12 µM)
C. krusei strains; C. krusei, inhibits 90% of strains
  MIC90: 2 µg/mL (≈ 2.24 µM)
C. krusei strains; individual C. krusei strain with elevated MICs to non-polyene comparators (Table 22)
  MIC: 0.5 µg/mL (≈ 0.559 µM)
C. tropicalis [16]; [20]
  MIC Range: 0.5-8
C. tropicalis [16]; C. tropicalis, inhibits 50% of strains
  MIC50: 1 µg/mL (≈ 1.12 µM)
C. tropicalis [16]; C. tropicalis, inhibits 90% of strains
  MIC90: 8 µg/mL (≈ 8.95 µM)
[17]; in µg/mL
  MIC Range: 1-2
[17]; inhibits 50% of strains
  MIC50: 2 µg/mL (≈ 2.24 µM)
[17]; inhibits 90% of strains
  MIC90: 2 µg/mL (≈ 2.24 µM)
[18]; kills 50% of strains
  MFC50: 4 µg/mL (≈ 4.47 µM)
[18]; kills 90% of strains
  MFC90: > 4 µg/mL
Cr. neoformans strains; Cr. neoformans strains, 72 h, in µg/mL
  MIC Range: 0.5-2
Cr. neoformans strains; Cr. neoformans, inhibits 50% of strains
  MIC50: 1 µg/mL (≈ 1.12 µM)
Cr. neoformans strains; Cr. neoformans, inhibits 90% of strains
  MIC90: 1 µg/mL (≈ 1.12 µM)

Source: patent publication US20230138395A1, “PHARMACEUTICAL COMPOSITIONS OF A THERAPEUTIC POLYENE MACROLIDE AND METHODS OF THEIR USE” (priority 2020, published 2023)
